{
  "source": "patent US20250041286A1",
  "about": "“CANCER TREATMENT USING KETOTIFEN IN COMBINATION WITH A CHECKPOINT INHIBITOR” (Materia Therapeutics Inc., priority 2021, published 2025)",
  "format_in_all_cases": "in vivo, mouse",
  "key": {"MCA205 tumors [1]": {"test_system": "MCA205 tumors", "test": "Hypoxia study, pimonidazole adduct immunofluorescence", "method": "Mice bearing orthotopic MCA205 or K7M2wt sarcoma tumors were injected (intraperitoneal) with 60 mg/kg of pimonidazole HCl at 2 hours prior to tumor removal. Tumors were removed, washed twice in 1×PBS for 10 minutes and incubated with 4% PFA overnight at 4° C. The fixative was aspirated, and samples were washed twice in 1×PBS for 10 min. Tissue samples were dehydrated in successive ethanol steps and xylene followed by paraffin embedding. Serial sections ([…]) of paraffin-embedded tissues were produced using the microtome (Accu-Cut SRM 200 Rotary Microtome, SAKURA), flattened out into water, and allowed to dry overnight at 37° C. Sections were then deparaffinized and rehydrated as routinely processed for histology. Slides were microwaved in TriSodium Citrate, blocked in serum solution, and incubated with mouse anti-pimonidazole RED 549 conjugate antibody (HP7-100Kit, 1:100) overnight at 4° C. The next day slides were washed, nuclei were stained with DAPI, and tissue sections were mounted. Immunofluorescence images of the slides were taken (FIG. 1A), and hypoxic area fraction across different treatment groups was normalized to DAPI staining."}, "K7M2wt tumors [2]": {"test_system": "K7M2wt tumors", "test": "qPCR mRNA expression levels in tumors", "settings": "10 mg/kg ketotifen, compared with the effect in MCA205", "method": "Total RNA was isolated from breast tumors according to the standard Trizol-based protocol (Invitrogen), and cDNA synthesis was performed using reverse transcriptase III (RT-III) enzyme and random hexamers (Invitrogen). Real-time polymerase chain reaction was performed using Sybr Fast Universal Master Mix (KAPA). Reactions were performed using a CFX-96 real-time PCR detection system (BioRad) at the following conditions: 95° C. for 2 minutes, 95° C. for 2 seconds, 60° C. for 20 seconds, 60° C. for 1 second, steps 2-4 for 39 cycles. Real-time PCR analysis and calculation of changes in gene expression between compared groups was performed using the ΔΔ^Ct method. Relative gene expression was normalized based on the expression of β-actin. For qPCR analysis, 3-5 biological samples were used per treatment and 3 technical replicates for each sample.\nmRNA expression levels were evaluated in both mouse sarcoma models by qPCR, as described above."}, "MCA205 tumors [3]": {"test_system": "MCA205 tumors", "test": "Flow cytometry of tumor-infiltrating lymphocytes and myeloid cells", "settings": "CD11b / Gr-1 flow cytometry", "method": "On day 16 of the doxorubicin-anti-PD-L1 combination study (e.g., the study outlined in FIG. 8A), MCA205 tumors were harvested in 1×HBSS (Biosera), minced to fine fragments, and incubated with 1 mg/mL Collagenase D and 0.5 mg/ml DNase I (Roche) in a 37° C. shaker for 30 minutes. Enzymatic digestion was ceased by the addition of RPMI media containing 10% FBS and 1% antibiotic/antimycotic solution. The tissue homogenates were then filtered through 40 μm cell strainers. Red blood cells were removed by ACK Lysing buffer (A1049201, Gibco) and single cell suspensions were collected and used to a final concentration 1×10^6 cells per sample. Cells were then incubated with fixable viability dye (eBioscience, 1:1000) for 10 minutes on ice for gating of viable cells. Non-specific antibody binding was blocked following incubation with the rat anti-mouse CD16/CD32 mAb (BD Bioscience) for 20 minutes on ice. […]\nFoxp3-AF488 (BD Bioscience) staining was performed following fixation and permeabilization process using the Foxp3/Transcription Factor Staining Buffer Set (00-5523-00, eBioscience). […] Flow cytometry data were obtained using BD FACSLyric flow cytometer and analyzed using BD FACSuite™ Software. […]"}, "K7M2wt tumors [4]": {"test_system": "K7M2wt tumors", "test": "Mast cell tryptase staining of tumors", "settings": "10 mg/kg ketotifen", "description": "(§1) Finally, to confirm the effect of ketotifen on MC inactivation, ketotifen-treated tumors were stained for tryptase, a serine protease unique to MCs with a role in myofibroblast proliferation and collagen synthesis."}, "MCA205 tumors [5]": {"test_system": "MCA205 tumors", "test": "Mast cell tryptase staining of tumors", "settings": "10 mg/kg ketotifen", "description": "as §1"}},
  "note": "“Also recorded” adds a separate entry of the source.",
  "data": [
    {"smiles": "CN1CCC(=C2c3ccccc3CC(=O)c3sccc32)CC1", "note": "[ketotifen]", "values": [
      {"measurement": "pimonidazole positive fraction (hypoxia)", "setting": "MCA205 tumors [1]; 1 mg/kg, 5 mg/kg and 25 mg/kg ketotifen", "value": "prominent"},
      {"measurement": "pimonidazole positive fraction (hypoxia)", "setting": "MCA205 tumors [1]; 10 mg/kg ketotifen, MCA205", "value": "significantly reduced; also recorded: alleviated hypoxia"},
      {"measurement": "mRNA levels of Col1A1, CTGF, Has2, Has3", "setting": "K7M2wt tumors [2]", "value": "A similar effect was observed"},
      {"measurement": "recruitment of immunosuppressive cell populations (MDSCs)", "setting": "MCA205 tumors [3]", "value": "reducing the recruitment of immunosuppressive cell populations; also recorded: decreasing the polarization of immature myeloid cell population into MDSCs"},
      {"measurement": "tryptase levels", "setting": "K7M2wt tumors [4]", "value": "reduced"},
      {"measurement": "tryptase levels", "setting": "MCA205 tumors [5]", "value": "reduced"}
    ]}
  ]
}
